Results as given in patent US12624034B2, “Non-covalent modifiers of AKT1 and uses thereof” (Terremoto Biosciences, Inc., priority 2023, dated 2026).
Read-outs that look alike come from different tables or passages of the source.

Key:
[1] = test system: LAPC4 prostate cancer cells, which express the AKT1 E17K allele; experiment: Antiproliferative effects in LAPC4 cells (CellTiter Glo, 72 h); assay type: cell-based; conditions: read-out: LAPC4 proliferation IC50
In short: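 Luminescent ATP read-out (CellTiter Glo) after 72 h compound exposure; 1,000 cells/well in IMDM + 12% FBS + 1% P/S. IC50 by Hill equation fit of luminescence vs. log(inhibitor).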

AKT1 E17K = target: T1, AKT1 E17K (Homo sapiens, UniProt P31749, E17K); experiment: Live cell AKT1 E17K target engagement by NanoBRET competitive probe displacement in HEK293 cells; assay type: binding; conditions: NanoBRET live cell target engagement, HEK293 cells, 2 h at 37° C.
T1 construct: expressed in transfected cells; host or cells: HEK293
In short: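 Read-out: BRET ratio E600/E460 from luminescence at 460 and 600 nm, fitted to a log(inhibitor) vs. response Hill equation for IC50. Intact HEK293 cells expressing NanoLuc-tagged kinase, compound dilutions with ~EC50 ATP-competitive fluorescent tracer, 2 h, 37° C.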

AKT1 WT = target: T2, AKT1 WT (Homo sapiens, UniProt P31749); experiment: Live cell AKT1 WT target engagement by NanoBRET competitive probe displacement in HEK293 cells; assay type: binding; conditions: NanoBRET live cell target engagement, HEK293 cells, 2 h at 37° C.; read-out: AKT1 WT IC50
T2 construct: expressed in transfected cells; host or cells: HEK293

AKT2 = target: T3, AKT2 (Homo sapiens, UniProt P31751); experiment: Live cell AKT2 target engagement by NanoBRET competitive probe displacement in HEK293 cells; assay type: binding; conditions: NanoBRET live cell target engagement, HEK293 cells, 2 h at 37° C.; read-out: AKT2 IC50
T3 construct: expressed in transfected cells; host or cells: HEK293
T3 sequence (P31751 whole entry): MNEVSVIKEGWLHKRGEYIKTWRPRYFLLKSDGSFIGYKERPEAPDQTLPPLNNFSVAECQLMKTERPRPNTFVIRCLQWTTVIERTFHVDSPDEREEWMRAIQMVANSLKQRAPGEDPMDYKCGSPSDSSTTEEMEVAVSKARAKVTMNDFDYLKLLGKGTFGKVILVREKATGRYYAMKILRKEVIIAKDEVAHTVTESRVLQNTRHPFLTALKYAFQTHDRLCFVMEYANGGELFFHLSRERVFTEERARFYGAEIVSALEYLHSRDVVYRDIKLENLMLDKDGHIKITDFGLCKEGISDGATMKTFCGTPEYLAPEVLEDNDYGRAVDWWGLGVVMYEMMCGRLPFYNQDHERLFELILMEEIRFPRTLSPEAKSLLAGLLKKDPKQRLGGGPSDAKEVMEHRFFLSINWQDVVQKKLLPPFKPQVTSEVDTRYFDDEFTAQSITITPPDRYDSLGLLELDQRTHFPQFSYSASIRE

T1 sequence (P31749 whole entry E17K): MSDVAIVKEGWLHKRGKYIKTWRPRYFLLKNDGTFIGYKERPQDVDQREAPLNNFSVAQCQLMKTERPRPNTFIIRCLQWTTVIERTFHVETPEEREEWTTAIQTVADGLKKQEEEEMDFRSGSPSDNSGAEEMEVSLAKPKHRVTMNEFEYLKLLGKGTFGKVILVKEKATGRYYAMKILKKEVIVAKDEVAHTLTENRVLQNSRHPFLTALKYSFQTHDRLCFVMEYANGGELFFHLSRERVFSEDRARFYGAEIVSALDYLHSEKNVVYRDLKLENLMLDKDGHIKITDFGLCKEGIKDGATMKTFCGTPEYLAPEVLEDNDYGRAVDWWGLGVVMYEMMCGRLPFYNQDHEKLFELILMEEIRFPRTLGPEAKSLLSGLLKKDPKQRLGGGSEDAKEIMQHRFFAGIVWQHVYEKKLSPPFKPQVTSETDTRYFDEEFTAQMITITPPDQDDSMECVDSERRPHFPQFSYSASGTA
T2 sequence (P31749 whole entry): as the sequence (P31749 whole entry E17K) above, with K17E counted along it

Row | Compound | IC50 ([1]; Homo sapiens, LAPC4, 72 h) | IC50 (AKT1 E17K) | IC50 (AKT1 WT) | IC50 (AKT2) | IC50 [1]
1 | CCC(=O)N1CCC(N[C@H]2CCc3cc(-n4c(-c5cccnc5N)nc5ccc(-n6cccn6)nc54)ccc32)CC1 [Compound 278] | > 10000 nM | > 1000 nM | 93 nM | 3290 nM | –
2 | Nc1ncccc1-c1nc2ccc(-n3cccn3)nc2n1-c1ccc2c(c1)CC[C@@H]2NC1CCN(C(=O)C2CC2)CC1 [Compound 279] | 9360 nM | > 1000 nM | 45.4 nM | 2400 nM | –
3 | COc1cc(C(=O)N[C@H]2CCc3cc(-n4c(-c5cccnc5N)nc5ccc(-n6cccn6)nc54)ccc32)cc(C)n1 [Compound 280] | 516 nM | 33.7 nM | 2.75 nM | 7.09 nM | –
4 | COc1nccc(C(=O)N[C@H]2CCc3cc(-n4c(-c5cccnc5N)nc5ccc(-n6cccn6)nc54)ccc32)c1Cl [Compound 281] | 950 nM | 75.5 nM | 3.63 nM | 18.3 nM | –
5 | Nc1ncccc1-c1nc2ccc(-n3cccn3)nc2n1-c1ccc2c(c1)CC[C@@H]2NC(=O)c1ccnc2occc12 [Compound 282] | 1310 nM | 84.2 nM | 5.86 nM | 68.9 nM | –
6 | COc1cc(C(=O)N[C@H]2CCc3cc(-n4c(-c5cccnc5N)nc5ccc(-n6cccn6)nc54)ccc32)cc(OC)n1 [Compound 283] | 264 nM | 10.6 nM | 2.75 nM | 2.91 nM | –
7 | COc1nccc(C(=O)N[C@H]2CCc3cc(-n4c(-c5cccnc5N)nc5ccc(-n6cccn6)nc54)ccc32)c1C [Compound 284] | 1070 nM | 143 nM | 5.1 nM | 10.5 nM | –
8 | CCc1cn([C@H]2CCc3cc(-n4c(-c5cccnc5N)nc5ccc(-n6cccn6)nc54)ccc32)nn1 [Compound 285] | 2230 nM | 39.5 nM | 23.7 nM | 608 nM | –
9 | Nc1ncccc1-c1nc2ccc(-n3nccn3)nc2n1-c1ccc2c(c1)CC[C@@H]2NC(=O)c1ccnc2c1CCO2 [Compound 286] | 4810 nM | 897 nM | 40.5 nM | 589 nM | –
10 | Nc1ncccc1-c1nc2ccc(-n3cccn3)nc2n1-c1ccc2c(c1)CC[C@@H]2n1cc(C2CCC2)nn1 [Compound 287] | 3000 nM | 259 nM | 16.9 nM | 636 nM | –
11 | Nc1ncccc1-c1nc2ccc(-n3nccn3)nc2n1-c1ccc2c(c1)CC[C@@H]2NC(=O)c1cnc(C(F)F)cn1 [Compound 288] | 3680 nM | > 1000 nM | 112 nM | > 10000 nM | –
12 | CCOC(=O)N1CCC(N[C@H]2CCc3cc(-n4c(-c5cccnc5N)nc5ccc(-n6cccn6)nc54)ccc32)CC1 [Compound 289] | 4780 nM | 283 nM | 69.9 nM | 2990 nM | –
13 | Nc1ncccc1-c1nc2ccc(-n3cccn3)nc2n1-c1ccc2c(c1)CC[C@@H]2NC(=O)c1cc[nH]c(=O)c1 [Compound 318] | 3600 nM | 181 nM | 149 nM | 931 nM | –
14 | CC(C)(C)c1cn([C@H]2CCc3cc(-n4c(-c5cccnc5N)nc5ccc(-n6cccn6)nc54)ccc32)nn1 [Compound 320] | 2250 nM | 472 nM | 83.7 nM | 2330 nM | –
15 | COc1cc(C(=O)N[C@H]2CCc3cc(-n4c(-c5cccnc5N)nc5ccc(-n6nccn6)nc54)ccc32)ccn1 [Compound 321] | 628 nM | 127 nM | 6.84 nM | 207 nM | –
16 | Nc1ncccc1-c1nc2ccc(-n3cccn3)nc2n1-c1ccc2c(c1)CC[C@@H]2NC(=O)c1cnc(C(F)F)cn1 [Compound 322] | 2550 nM | 274 nM | 63.5 nM | 1330 nM | –
17 | Nc1ncccc1-c1nc2ccc(-n3cccn3)nc2n1-c1ccc2c(c1)CC[C@@H]2NC(=O)c1ccc(O)c(O)c1 [Compound 323] | 713 nM | 112 nM | 45.6 nM | 594 nM | –
18 | Nc1ncccc1-c1nc2ccc(-n3nccn3)nc2n1-c1ccc2c(c1)CC(F)[C@@H]2NC(=O)c1ccc(C(F)F)nc1 (some centres unmarked) [Compound 349] | – | 49.6 nM | 10.3 nM | 222 nM | 408 nM
19 | Nc1ncccc1-c1nc2ccc(-n3nccn3)nc2n1-c1ccc2c(c1)CC(F)[C@@H]2NC(=O)c1ccc(C(F)F)nc1 (some centres unmarked) [Compound 350] | – | 94.4 nM | 11.5 nM | 423 nM | 885 nM

Row | Compound | IC50 ([1]; Homo sapiens, LAPC4, 72 h) | IC50 (AKT1 E17K) | IC50 (AKT1 WT) | IC50 (AKT2) | IC50 [1]
20 | Nc1ncccc1-c1nc2ccc(-n3cccn3)nc2n1-c1ccc2c(c1)CC[C@@H]2NC(=O)c1cc(O)c(O)cc1F [Compound 351, N-[(1S)-5-[2-(2-aminopyridin-3-yl)-5-(pyrazol-1-yl)imidazo[4,5-b]pyridin-3-yl]-2,3-dihydro-1H-inden-1-yl]-2-fluoro-4,5-dihydroxybenzamide] | 1140 nM | 82.5 nM | 20.3 nM | 497 nM | –
21 | COc1nccc(C(=O)N[C@H]2CCc3cc(-n4c(-c5cccnc5N)nc5ccc(-n6cccn6)nc54)ccc32)c1OC [Compound 355] | 2770 nM | 734 nM | 16.8 nM | 74.4 nM | –
22 | Nc1ncccc1-c1nc2ccc(-n3cccn3)nc2n1-c1ccc2c(c1)CC[C@@H]2NC(=O)c1ccnc2c1OCCO2 [Compound 356] | > 10000 nM | > 1000 nM | 52.3 nM | 1070 nM | –
23 | COc1cc(C(=O)N[C@H]2CCc3cc(-n4c(-c5cccnc5N)nc5ccc(-n6cccn6)nc54)ccc32)c(C)cn1 [Compound 357] | 875 nM | 23.8 nM | 5.79 nM | 20 nM | –
24 | Nc1ncccc1-c1nc2ccc(-n3cccn3)nc2n1-c1ccc2c(c1)CC[C@@H]2NC1CCN(C(=O)c2ccccn2)CC1 [Compound 358] | 7530 nM | > 1000 nM | 208 nM | 4640 nM | –
25 | Nc1ncccc1-c1nc2ccc(-n3cccn3)nc2n1-c1ccc2c(c1)CC[C@@H]2NC1CCN(C(=O)c2cccnc2)CC1 [Compound 359] | > 10000 nM | > 1000 nM | 231 nM | > 10000 nM | –
26 | Nc1ncccc1-c1nc2ccc(-n3cccn3)nc2n1-c1ccc2c(c1)CC[C@@H]2NC1CCN(C(=O)c2ccncc2)CC1 [Compound 360] | > 10000 nM | > 1000 nM | 483 nM | 8140 nM | –
27 | Nc1ncccc1-c1nc2ccc(-n3cccn3)nc2n1-c1ccc2c(c1)CC[C@@H]2NC(=O)c1ccnc2c1CCCO2 [Compound 361] | 4290 nM | 486 nM | 24.7 nM | 411 nM | –
28 | Nc1ncccc1-c1nc2ccc(-n3cccn3)nc2n1-c1ccc2c(c1)CC[C@@H]2n1cc(C2CC2(F)F)nn1 (some centres unmarked) [Compound 362] | 6960 nM | 138 nM | 36.1 nM | 1270 nM | –
29 | Nc1ncccc1-c1nc2ccc(-n3cccn3)nc2n1-c1ccc2c(c1)CC[C@@H]2NC(=O)c1ccnc2sccc12 [Compound 363] | 1420 nM | 57.9 nM | 7.74 nM | 67.2 nM | –
30 | COc1cc(C(=O)N[C@H]2CCc3cc(-n4c(-c5cccnc5N)nc5ccc(-n6nccn6)nc54)ccc32)cnc1C(F)F [Compound 364] | 2320 nM | 260 nM | 20.7 nM | 1110 nM | –
31 | Nc1ncccc1-c1nc2ccc(-n3cccn3)nc2n1-c1ccc2c(c1)CC[C@@H]2NC(=O)c1cnc(C(F)F)c(Cl)c1 [Compound 365] | 444 nM | 26.5 nM | 8.58 nM | 24.9 nM | –
32 | Nc1ncccc1-c1nc2ccc(-n3nccn3)nc2n1-c1ccc2c(c1)CC[C@@H]2NC1CCN(c2ccccn2)CC1 [Compound 366] | > 10000 nM | 818 nM | 70.9 nM | 4380 nM | –
33 | Nc1ncccc1-c1nc2ccc(-n3ccc(F)n3)nc2n1-c1ccc2c(c1)CC[C@@H]2NC1CCN(c2ccccn2)CC1 [Compound 367] | 6330 nM | 735 nM | 74.4 nM | 2520 nM | –
34 | Nc1ncccc1-c1nc2ccc(-n3cccn3)nc2n1-c1ccc2c(c1)CC[C@@H]2NC1CCN(c2cccnc2)CC1 [Compound 368] | 6620 nM | 406 nM | 36.8 nM | 768 nM | –
35 | N#CC1(C(=O)N2CCC(N[C@H]3CCc4cc(-n5c(-c6cccnc6N)nc6ccc(-n7cccn7)nc65)ccc43)CC2)CC1 [Compound 369] | > 10000 nM | > 1000 nM | 117 nM | 5590 nM | –
36 | Nc1ncccc1-c1nc2ccc(-n3cccn3)nc2n1-c1ccc2c(c1)CC[C@@H]2NC1CCN(C(=O)C2(F)CC2)CC1 [Compound 370] | > 10000 nM | 810 nM | 58.4 nM | 1720 nM | –
37 | COc1ccc(C(=O)N[C@H]2CCc3cc(-n4c(-c5cccnc5N)nc5ccc(-n6nccn6)nc54)ccc32)cn1 [Compound 371] | 1050 nM | 47.8 nM | 15.4 nM | 1280 nM | –
38 | Nc1ncccc1-c1nc2ccc(-n3nccn3)nc2n1-c1ccc2c(c1)CC[C@@H]2NC(=O)c1ccnc2occc12 [Compound 379] | 4240 nM | 248 nM | 12.6 nM | 1280 nM | –
